# In patent publication US10028971B2, “Compositions and methods for treating psychiatric disorders” (GOSFORTH CENTRE (HOLDINGS) PTY LTD., priority 2008, dated 2018):
# Like-named read-outs stand apart in the source and are kept apart here.
# How the values were obtained:
# adults with ADHD = test system: adults with ADHD
# Protocol: In the clinical setting a number of adults with ADHD experienced a combination therapy of stimulant medication (dexamphetamine) in combination with sodium valproate (VPA). The initial dosages used were from 15 to 70 mg/day of dexamphetamine and from 100 to 700 mg/day of VPA (Epilim) (=approximately 2 to 10 mg/kg/day).
# The determination of the dose for the dexamphetamine was undertaken in a clinical sensitive open label manner. The dose was titrated upwards dependent on the clinical response and the freedom from side-effects. The dose range was between 15 and 70 mg a day. The frequency of the dosing also varied dependent upon the clinical response. The usual dose interval was between two to four hours. This dosing adjustment took place prior to the commencement of the sodium valproate. The sodium valproate medication was initiated once a day at 50 mg tablet or elixir and titrated upwards dependent on response, but not more than one increase every three days. The dose was given as a once or twice a day regime. During the titration phase, if clinically possible, no other adjustments to the pharmacotherapy were undertaken.
# [1] = test system: individuals with dysthymia; test: Treatment of dysthymia, clinical observation; type: in vivo, human; conditions: person, PTSD, treated ADHD, sodium valproate 100 mg a day
# Source text: The inventor has noted in the clinical setting that individuals suffering with symptoms consistent with a diagnosis of dysthymia, experience a significant abatement from their negative and sometimes intrusive thought patterns on commencement of a low dose anti-epileptic drug. The inventor has also noted in the clinic that the beneficial effects that are noted on commencement of this combination can be further enhanced synergistically, by the use of a psycho-stimulant. These individuals may or may not meet the full criteria for a DSM IV diagnosis consistent with ADHD.
# A number of individuals with symptoms of dysthymia report that the depression has been present since adolescence, and finally present in the clinic, after an acute major depressive episode. They are able to achieve a partial resolution from the symptoms of depression with appropriate pharmacological and psychological treatment. Unfortunately, their negative thought patterns are more persistent and can be misinterpreted as a failure to adequately respond to antidepressant therapy. In actuality these symptoms predate the acute episode, and it is not surprising therefore that they don't abate following treatment. […] These subsequent outcomes lead to an improvement in general interpersonal functioning, which in itself contributes to psychosocial stability. […]
# [2] = test system: patients with substance addiction; test: Treatment of addictions, clinical observation; type: in vivo, human; conditions: for clinical outcome (case): person
# Source text: Addiction to amphetamines poses a number of unique challenges.
# [3] = test system: individuals with MCI or dementia; test: Mild cognitive impairment and dementia, clinical cases (Developmental Eye Movement test, Alzheimer's Quick Test); type: in vivo, human; conditions: person
# Source text: A married person with a history of good cognitive functioning until last 4-5 yrs when noted by both their spouse and themself to becoming increasingly socially withdrawn primarily because of the difficulty in listening without distraction during social interaction, no known childhood or adult history of prior attentional or impulsive disorders. It has been clinically observed by the inventor that individuals treated with low dose antiepileptic were enhanced in their ability to discriminate irrelevant from the relevant sound was enhanced. […] On ceasing the medication there was an initial improvement again over the preceding 3 to 7 days followed by a loss of the therapeutic effects and returned to their pre-medication function. On the ressumption of the 12.5 mg phenytoin there was a return of the improved function. On this second occasion they were more aware of the benefits and also the gradual return of the detrimental clinic effects. During the clinical assessment it was noted that they had more flexibility in their conversation and more natural use of non-verbal cues, there was also enhancement of their egocentric gaze. […] These benefits were also noted by their spouse. […] Again these medications were ceased resulting in a loss of associated benefits. With each trial of medication they became more apparent to the patient and their spouse of the benefits of the therapy. They attempted whilst not taking the medication to communicate and follow the conversation in a way that they had been able to whilst on treatment. They found when attempting to do so they became mentally exhausted and unable to sustain the effort required for the interaction. The improvements noted clinically and also recorded using the Developmental Eye Movement test and a measure of parietal function the Alzheimer's Quick Test. Married person diagnosed with fronto-temporal dementia. they had been assessed by neuropsychologist, and geriatrician and psychiatrist to confirm this diagnosis. […] They then relied on others to make decisions for […]. They had gradually become socially disengaged finding such interactions distressing and demanding. […] Despite ongoing difficulties of word finding they were able to socially interact more spontaneously than they had done for many years. And have confidence in areas of conversation that they previously would have avoided. […] On two occasions the medication was withdrawn and then reintroduced, due to the experimental nature of treatment and concern that there might be a significant placebo effect. […] Following the subsequent reduction there was a return of the improvement previously noted.
# [4] = test system: individual with a history of a head injury; test: Head injury with acquired ADHD syndrome, clinical case; type: in vivo, human; conditions: person
# Source text: A person, no history of ADHD in childhood. Involved in a serious motor vehicle accident the with a depressed skull fracture and frontal lobe involvement. Subsequent history consistent with a acquired syndrome of ADHD. Subsequent development of co-morbid diagnoses included in alcohol dependence, pathological gambling and major depression.
# [5] = test system: adherence to medication regime; conditions: person
# Source text: As a result, taking medication becomes an automatic activity which doesn't require a high level of attention and motivation.
# The individual experiences an improvement in the ability to efficiently and effectively attend to a task in hand, without also needing to expend extra cognitive effort to remember which medication to take and at what times.
# [6] = test system: mood stabilisation or epileptic symptoms or events; conditions: adults, cited from earlier work
smiles,measurement,setting,value
"CCCC(CCC)C(=O)O.[Na] [sodium valproate, sodium di-n-propylacetic acid]",clinical outcome (case),"adults with ADHD; adult female, sodium valproate maximum 150 mg added to methylphenidate",Improvement
same,group outcome of combination therapy,"adults with ADHD; adults with ADHD, Methylphenidate 40 mg/d, Valproate 100 mg/d, Phenytoin 50 mg/d",successfully treated
same,clinical assessment under combination therapy,"adults with ADHD; adults with ADHD, Valproate 50-300 mg/d with Dexamphetamine 20-75 mg/d",overall improvement in psychosocial functioning
same,group outcome of combination therapy,"adults with ADHD; adults with ADHD, dexamphetamine 20-45 mg/d, Valproate 100-400 mg/d, Phenytoin 12.5-50 mg/d",successfully treated
same,group outcome of combination therapy,"adults with ADHD; adults with ADHD, median 40 mg/d Dexamphetamine, 120 mg/d Sodium Valproate, 25 mg/d Topiramate",successfully treated
same,group outcome of combination therapy,"adults with ADHD; adults with ADHD, methylphenidate 30-125 mg/d with Valproate 50-200 mg/d",successfully treated
same,effect of higher doses,"adults with ADHD; human, in vivo",general cognitive slowing and the resultant loss of efficacy
same,clinical outcome (case),"adults with ADHD; person, ADHD, anorexia nervosa, borderline personality disorder, sodium valproate 200 mg with dexamphetamine",responded
same,clinical outcome (case),"adults with ADHD; person, ADHD, low dose sodium valproate 50 mg added to psycho stimulant",improvement in their egocentric gaze and improved cognition
same,clinical outcome (case),"adults with ADHD; person, ADHD, sodium valproate 100 mg a day added to dexamphetamine 40 mg",improvement with more organised thoughts
same,self-described improvement in ability to study,"adults with ADHD; person, ADHD, sodium valproate (50 mg) added to psycho stimulant",50%
same,clinical outcome (case),"adults with ADHD; person, 100 mg sodium valproate added to methylphenidate 55 mg","enhanced ability to maintain conversation, improved cognition, improved assertiveness and self organisation"
same,clinical outcome (case),"adults with ADHD; person, sodium valproate (up to 500 mg a day) added to dexamphetamine 20 mg",Further benefit
same,clinical outcome (case),"adults with ADHD; person, sodium valproate maximum 400 mg added to dexamphetamine",good effect
same,clinical outcome (case),"adults with ADHD; person, valproate dose reached 150 mg, with psycho stimulant",benefits were lost
same,clinical outcome (case),[1],could read without distraction
same,clinical outcome (case),"[2]; methamphetamine use, 100 mg/d Valproate with 50 mg/d dexamphetamine",robust improvement in attention and concentration abilities
same,clinical outcome (case),[2]; sodium valproate 50 mg increased to 200 mg with dexamphetamine,reduced dependence on marijuana and ceased alcohol consumption
same,clinical outcome,"[2]; two patients, ADHD and methamphetamine addiction, Valproate 50 to 100 mg/d with 50 mg/d dexamphetamine",responded well
same,clinical outcome (case),[3]; sodium valproate 40 mg,enhanced ability to follow the train of conversation
same,clinical outcome (case),[3]; sodium valproate 80 mg,loss of these benefits
same,clinical outcome (case),[4]; sodium valproate 150 mg added to dexamphetamine 50 mg,Improved social interaction and egocentric eye gaze
same,clinical outcome (case),[4]; sodium valproate above 150 mg,loss of benefit
same,clinical outcome (case),"[5]; complex regime, no ADHD, ASD or dementia, Sodium valproate 100 mg added",enhanced ability to track their thoughts with less effort
same,clinical outcome (case),[5]; sodium valproate reduced to 100 mg with dexamphetamine 40 mg,"improved efficacy, cognition, organisation and compliance with medication"
same,dose range in which control of symptoms of mania occurs,"[6]; mania (e.g. bipolar disorder), Epilim product information (Sanofi-Aventis)","1,000 to 2,000 mg/day"
same,dose range in which control of symptoms of mania occurs,"[6]; mania, Epilim product information",20 to 30 mg/kg/day
